The supplement of paper PMC10307832

Experiments:
Assay in all cases: relative viability (nuclei count vs DMSO), 5 days (fraction); higher = more cells survive
[1] = compound: COc1cc2nc(N3CCCN(C)CC3)nc(NC3CCN(Cc4ccccc4)CC3)c2cc1OC + O=C(c1cc(Cc2n[nH]c(=O)c3ccccc23)ccc1F)N1CCN(C(=O)C2CC2)CC1 [Olaparib] (partner 8 µM)
In short: (§1)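 One day after seeding in 1536-well plates, lung cancer cell lines were dosed by pin tool. Dosing was either single-drug or a fixed anchor-drug dose plus five library-drug doses (not always all listed) in √10 steps. After 5 days, nuclei were stained in one fix-and-stain step and counted on 4× images, and relative viability is the nuclei count of treated wells over that of vehicle wells, given as the median of duplicate plates.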

[2] = compound: COc1cc2nc(N3CCCN(C)CC3)nc(NC3CCN(Cc4ccccc4)CC3)c2cc1OC + Cc1nc(NC(=O)N2CCC[C@H]2C(N)=O)sc1-c1ccnc(C(C)(C)C(F)(F)F)c1 [Alpelisib] (partner 2 µM)
In short: as §1

AZD6482 + Linsitinib = compound: Cc1cc([C@@H](C)Nc2ccccc2C(=O)O)c2nc(N3CCOCC3)cc(=O)n2c1 [AZD6482] + C[C@]1(O)C[C@@H](c2nc(-c3ccc4ccc(-c5ccccc5)nc4c3)c3c(N)nccn32)C1 [Linsitinib] (partner 1 µM)
In short: as §1

AZD6482 + Bortezomib = compound: Cc1cc([C@@H](C)Nc2ccccc2C(=O)O)c2nc(N3CCOCC3)cc(=O)n2c1 [AZD6482] + CC(C)C[C@H](NC(=O)[C@H](Cc1ccccc1)NC(=O)c1cnccn1)B(O)O [Bortezomib] (partner 0.002 µM)
In short: as §1

| Cell Line | relative viability ([1]; first compound 0.2 µM) | relative viability ([1]; first compound 0.6325 µM) | relative viability ([1]; first compound 2 µM) | relative viability ([1]; first compound 6.325 µM) | relative viability ([2]; first compound 0.2 µM) | relative viability ([2]; first compound 0.6325 µM) | relative viability ([2]; first compound 2 µM) | relative viability ([2]; first compound 6.325 µM) | relative viability (AZD6482 + Linsitinib; first compound 0.08 µM) | relative viability (AZD6482 + Linsitinib; first compound 0.253 µM) | relative viability (AZD6482 + Linsitinib; first compound 0.8 µM) | relative viability (AZD6482 + Linsitinib; first compound 2.53 µM) | relative viability (AZD6482 + Linsitinib; first compound 8 µM) | relative viability (AZD6482 + Bortezomib; first compound 0.08 µM) | relative viability (AZD6482 + Bortezomib; first compound 0.253 µM) | relative viability (AZD6482 + Bortezomib; first compound 0.8 µM) | relative viability (AZD6482 + Bortezomib; first compound 2.53 µM) | relative viability (AZD6482 + Bortezomib; first compound 8 µM) |
| --- | --- | --- | --- | --- | --- | --- | --- | --- | --- | --- | --- | --- | --- | --- | --- | --- | --- | --- |
| HCC-44 | 0.974 | 1.02 | 0.953 | 0.977 | 0.832 | 0.748 | 0.841 | 0.746 | 0.413 | 0.527 | 0.429 | 0.539 | 0.362 | 0.799 | 1.01 | 0.975 | 1.04 | 0.88 |
| HCC-827 | 0.753 | 0.626 | 0.685 | 0.622 | 0.906 | 0.922 | 0.952 | 0.891 | 0.939 | 0.944 | 0.926 | 0.861 | 0.775 | 0.991 | 1.1 | 1.09 | 0.872 | 0.836 |
| NCI-H2347 | 0.563 | 0.532 | 0.535 | 0.521 | 0.929 | 1.02 | 1.03 | 0.831 |  | 0.943 | 0.949 | 0.571 | 0.84 | 0.755 | 0.681 | 0.873 | 0.619 | 0.496 |
| PC-14 | 0.322 | 0.374 | 0.279 | 0.0641 | 0.981 | 0.918 | 1.05 | 0.901 | 0.93 | 0.966 | 1.02 | 0.675 | 0.736 | 0.785 | 0.917 | 0.913 | 0.67 | 1.02 |
| NCI-H1651 | 0.181 | 0.149 | 0.157 | 0.17 | 0.921 | 0.915 | 1.16 | 1.1 | 0.674 | 0.663 | 0.733 | 0.63 | 0.591 | 0.918 | 0.941 | 0.905 | 0.809 | 0.825 |
| HARA | 0.79 | 1.1 | 0.832 | 1.05 | 0.798 | 0.823 | 0.858 | 0.87 | 0.691 | 0.974 | 1.11 |  | 0.775 | 0.977 | 1.08 | 1.37 |  | 1.13 |
| NCI-H1650 | 0.773 | 0.787 | 0.886 | 0.648 |  |  |  |  |  |  |  |  |  | 0.192 |  | 0.188 | 0.205 | 0.202 |
| NCI-H1395 | 0.444 | 0.473 | 0.445 | 0.433 | 1.1 | 1.04 | 1.07 | 0.589 | 0.879 | 0.639 | 0.661 | 0.436 | 0.732 |  |  |  |  |  |
| LU99A | 0.287 | 0.215 | 0.249 | 0.287 | 0.539 | 0.458 | 0.454 | 0.479 | 0.445 | 0.44 | 0.434 | 0.331 | 0.361 | 1.07 | 1.16 | 1.11 | 0.875 | 0.823 |
| NCI-H1355 | 0.714 | 0.743 | 0.862 | 0.79 | 0.83 | 0.861 | 0.856 | 0.805 | 0.472 | 0.55 | 0.576 | 0.526 | 0.536 | 1.06 | 1.06 | 1.16 | 0.874 | 1.03 |
